In article PMC3546862, “Assessing the utility of an anti-malarial pharmacokinetic-pharmacodynamic model for aiding drug clinical development” (Malaria Journal, 2012):
Values after ≈ are worked out from the molar mass of the structure shown. Where two headings read alike, the source gives them in different places. Marks after values point to notes of the source that are not given here.

How the values were obtained:
[1] = test system: P. falciparum strain NF54; experiment: [3H]-hypoxanthine incorporation assay, asynchronous intraerythrocytic forms; format: cell-based; conditions: for IC50: Plasmodium falciparum
Experimental: (§1) The fresh P. falciparum parasite isolates were obtained from blood samples of 487 patients attending outpatient clinics in Papua, Indonesia between 2004 and 2010 [26]. The in vitro drug susceptibility was determined using the World Health Organization guidelines for schizont maturation tests. The in vitro data for artemether were measured at the Swiss Tropical and Public Health Institute (Switzerland; Basel) against asynchronous intraerythrocytic forms of the P. falciparum strain NF54 (obtained from MR4) using the [3H]-hypoxanthine incorporation assay.

0.5% Albumax in RPMI = 0.5% Albumax in RPMI (Bos taurus, UniProt P02769); experiment: Binding to in vitro testing media by ultracentrifugation; format: in vitro ADME; conditions: ultracentrifugation 4.2 hours at 37°C
Experimental: (§2) Estimates of drug binding to the in vitro testing media (i.e. 0.5% Albumax in RPMI) and human plasma were determined using ultracentrifugation. Briefly, blank Albumax media and plasma were each spiked with compound and divided into six aliquots; three aliquots were subjected to ultracentrifugation (Beckman Optima XL-100K Ultracentrifuge, Rotor type 42.2 Ti; 223,000 x g) for 4.2 hours at 37°C to pellet the proteins whereas the remaining three aliquots served as controls and were incubated at 37°C for the same time period but without centrifugation. Controls were also stored at −20°C to confirm sample stability over the centrifugation period. Aliquots of the supernatants from the ultracentrifuged samples were first diluted 1:1 in acetonitrile, assayed by LC-MS and the responses compared to a calibration curve prepared in 50% aqueous acetonitrile to determine the unbound (i.e. free) concentration. Control concentrations in each matrix were determined using LC-MS by first precipitating the proteins with acetonitrile (3:1 acetonitrile: matrix) and then comparing the responses to a calibration curve from a blank matrix prepared using the same protein precipitation procedure. The free fraction in each matrix was then determined from the ratio of the average unbound (e.g. free) concentration to the average total concentration in each matrix.

human plasma protein = experiment: Human plasma protein binding by ultracentrifugation; format: in vitro ADME; conditions: ultracentrifugation 4.2 hours at 37°C
Experimental: as §2

[2] = Whole blood to plasma partitioning ratio (B/P); format: in vitro ADME; conditions: human, whole blood and plasma; 37°C, 2 min incubation
Experimental: The whole blood to plasma partitioning ratio (B/P) was determined by spiking aliquots of whole blood or plasma maintained at 37°C with compound, incubating for 2 min, and then centrifuging the whole blood sample to obtain the plasma fraction. Both the plasma fraction of whole blood and the plasma control were assayed for compound by LC-MS as described above. The blood to plasma ratio was calculated from the ratio of the concentration in the plasma control (used as a surrogate for the total whole blood concentration since whole blood assays were not available for each compound) to that in the plasma fraction of whole blood. The two-minute time point was used to avoid confounding issues due to potential blood instability; rapid equilibration between plasma and erythrocytes was assumed.

P. falciparum [3] = experiment: Parasite reduction ratio from published clinical data and kmax calculated from it; format: in vivo; conditions: kmax = 1/KZ x ln PRR + 1/48 x ln PMF, PMF = 10
Description: (§3) The maximal killing rate (kmax) of the drug was assumed to follow a triangular distribution. The middle values were taken from published clinical data. Piperaquine was the only drug with no clinical studies of it administered as a monotherapy and the mode was set to a value equal to that derived from in vitro experiments. The minimum and maximum values of the triangular distribution for each anti-malarial correspond to a 50-fold decrease and 50-fold increase in the number of parasites killed every 48 hours.

[4] = cited from earlier work
P. falciparum [5] = test system: P. falciparum; set-up: method as in PMID 2648881; conditions: assumed; cited from earlier work
[6] = test system: fresh P. falciparum parasite isolates; experiment: In vitro drug susceptibility, schizont maturation test (WHO guidelines) on fresh patient isolates; format: cell-based; conditions: for IC50: Plasmodium falciparum; for γ (Slope of concentration-effect curve): in vitro; for γ, mean on loge scale of log-normal distribution lnN(μ ln, σ ln): first parameter of lnN
Experimental: as §1

P. falciparum [7] = experiment: Parasite reduction ratio from in vitro killing rate experiments and kmax calculated from it; format: cell-based; conditions: kmax = 1/KZ x ln PRR + 1/48 x ln PMF, PMF = 10; PRR from in vitro experiments
Description: as §3

P. falciparum [8] = conditions: every 48 hours; published clinical data; cited from earlier work
ring stage parasites = test system: ring stage parasites; set-up: method as in PMID 21173254; conditions: patients with delayed PCTs; cited from earlier work
[9] = geometric mean, adjusted to whole blood, lower limit a of EC50 distribution, read-out: IC50 (adjusted) concentration
[10] = geometric mean, not corrected for binding, isolates of 487 patients, Papua, Indonesia, read-out: IC50 measured concentration
[11] = not corrected for binding, from nM and molecular weight, read-out: IC50 concentration

Chain of 0.5% Albumax in RPMI (P02769 25-607): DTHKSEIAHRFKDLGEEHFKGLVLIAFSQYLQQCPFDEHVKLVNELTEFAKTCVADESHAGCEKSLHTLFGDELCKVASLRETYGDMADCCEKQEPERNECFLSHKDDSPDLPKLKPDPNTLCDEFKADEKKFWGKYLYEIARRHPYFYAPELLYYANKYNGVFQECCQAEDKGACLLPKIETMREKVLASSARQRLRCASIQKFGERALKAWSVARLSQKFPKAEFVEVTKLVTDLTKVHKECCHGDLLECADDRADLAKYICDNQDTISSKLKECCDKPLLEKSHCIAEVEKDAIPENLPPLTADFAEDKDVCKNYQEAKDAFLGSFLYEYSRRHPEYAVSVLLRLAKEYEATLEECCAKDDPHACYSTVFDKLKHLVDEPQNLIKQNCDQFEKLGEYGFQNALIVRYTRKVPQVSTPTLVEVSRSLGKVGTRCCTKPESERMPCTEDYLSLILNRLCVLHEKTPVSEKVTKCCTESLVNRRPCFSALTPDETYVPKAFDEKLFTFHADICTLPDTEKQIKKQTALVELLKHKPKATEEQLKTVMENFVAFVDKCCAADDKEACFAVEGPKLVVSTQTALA

Row | SMILES | Binding to media of in vitro experiment (0.5% Albumax) (0.5% Albumax in RPMI) | Human plasma protein binding (human plasma protein) | blood plasma ratio at 2 min [2] | kmax, mode c of triangular distribution TRI(a, b, c) (P. falciparum [3]) | CL/F (clearance) [4] | V/F (volume of distribution) [4] | ka (absorption rate constant) [4] | KZ (length of the killing zone) (P. falciparum [5]) | IC50 [6, 9] | IC50 [6, 10] | IC50 [6, 11] | γ (Slope of concentration-effect curve) [6] | γ, mean on loge scale of log-normal distribution lnN(μ ln, σ ln) [6] | also measured
1 | CO[C@H]1O[C@@H]2O[C@@]3(C)CC[C@H]4[C@H](C)CC[C@@H]([C@H]1C)[C@@]24OO3 [ART, artemether] | 82.8 % bound | 91.7 % bound | 0.8 | TRI(0.12, 0.33, 0.22)^c /h | 180 L/h | 217 L | 0.37 h⁻¹ | 38 h |  |  |  |  |  | IC50 ([1]; adjusted to whole blood, lower limit a of EC50 distribution, read-out: IC50 (adjusted) concentration): 4.38 ng/mL (≈ 0.0147 µM); IC50 ([1]; not corrected for binding, read-out: IC50 concentration): 2.64 ng/mL (≈ 0.00885 µM); γ, mean on loge scale of log-normal distribution lnN(μ ln, σ ln) ([1]; first parameter of lnN): lnN(1.53, 0.31); γ (Slope of concentration-effect curve) ([1]; in vitro): 4.61
2 | Clc1ccc2c(N3CCN(CCCN4CCN(c5ccnc6cc(Cl)ccc56)CC4)CC3)ccnc2c1 [PQ, piperaquine] | 98.1 % bound | 98.6 % bound | 0.9 |  |  |  |  | 24 h | 11.6 ng/mL | 17.7 nM | 9.46 ng/mL | 3.48 |  | kmax, mode c of triangular distribution TRI(a, b, c) (P. falciparum [7]): TRI(0.33, 0.65, 0.49)^c /h; CL/F (clearance) ([4]; 48kg individual): 66 L/h; Q/F (inter-compartmental clearance) ([4]; 48kg individual): 131 L/h; Vc/F (volume of central compartment) ([4]; 48kg individual): 8660 L; Vp/F (volume of peripheral compartment) ([4]; 48kg individual): 24000 L; ka (absorption rate constant) ([4]; 48kg individual): 0.717 h⁻¹
3 | CCCCN(CCCC)CC(O)c1cc(Cl)cc2c1-c1ccc(Cl)cc1/C2=C/c1ccc(Cl)cc1 (stereo not drawn) [LF, lumefantrine] | 99.6 % bound | 98.7 % bound | 0.8 | TRI(0.18, 0.54, 0.36)^c /h | 7.04 L/h |  | 0.17 h⁻¹ | 22 h | 1.75 ng/mL | 13.4 nM | 7.1 ng/mL | 2.24 | lnN (0.81, 0.58) | Q/F (inter-compartmental clearance) [4]: 4.08 L/h; Vc/F (volume of central compartment) [4]: 103 L; Vp/F (volume of peripheral compartment) [4]: 272 L; PRR (parasite reduction ratio) (P. falciparum [8]): 10^3
4 | OC(c1cc(C(F)(F)F)nc2c(C(F)(F)F)cccc12)C1CCCCN1 (stereo not drawn) [MQ, mefloquine] | 85 % bound | 95.6 % bound |  | TRI(0.11, 0.46, 0.28)^c /h |  | 10.2^f L/kg |  | 22 h | 21 ng/mL | 9.34 nM | 3.53 ng/mL | 2.63 | lnN (0.97, 0.54) | IC50 (adjusted) concentration ([6]; geometric mean, adjusted to whole blood, lower limit a of EC50 distribution): 20.48 ng/mL (≈ 0.0541 µM)
5 | C[C@H]1[C@H](OC(=O)CCC(=O)O)O[C@@H]2O[C@@]3(C)CC[C@H]4[C@H](C)CC[C@@H]1[C@@]24OO3 [artesunate] |  |  |  |  |  |  |  |  |  |  |  |  |  | Maximal killing rate for the ring stages, mean (ring stage parasites): 62 % /cycle
